Values of other authors in patent US8859624B2, “Stable rasagiline composition” (Chongqing Pharmaceutical Research Institute Co., Ltd., priority 2009, dated 2014).

Conditions: taking food after oral administration

decrease of blood drug concentration: 60%
SMILES: C#CCN[C@@H]1CCc2ccccc21 [Rasagiline, rasagiline]
